Measurements from US7981903B2, “2-[2-{phenylamino}-1H-pyrrolo[2,3-D]pyrimidin-4-yl)amino] benzamide derivatives as IGF-1R inhibitors for the treatment of cancer” (GlaxoSmithKline LLC, priority 2007, dated 2011).

These compounds were tested against T1, human IGF1R (hIGF1R) (Homo sapiens, UniProt P08069) (assay: TR-FRET kinase assay of purified hIGF1R). Details: activated hIGF1R 0.5 nM, 10 μM ATP, values given as pIC50 category, read-out: IGF-1R pIC50 (converted).
T1 construct: containing amino acid residues 957-1367 of human IGF1R; made in house; host or cells: Sf9 cells (baculovirus)
Assay type: biochemical

T1 sequence (P08069 957-1367): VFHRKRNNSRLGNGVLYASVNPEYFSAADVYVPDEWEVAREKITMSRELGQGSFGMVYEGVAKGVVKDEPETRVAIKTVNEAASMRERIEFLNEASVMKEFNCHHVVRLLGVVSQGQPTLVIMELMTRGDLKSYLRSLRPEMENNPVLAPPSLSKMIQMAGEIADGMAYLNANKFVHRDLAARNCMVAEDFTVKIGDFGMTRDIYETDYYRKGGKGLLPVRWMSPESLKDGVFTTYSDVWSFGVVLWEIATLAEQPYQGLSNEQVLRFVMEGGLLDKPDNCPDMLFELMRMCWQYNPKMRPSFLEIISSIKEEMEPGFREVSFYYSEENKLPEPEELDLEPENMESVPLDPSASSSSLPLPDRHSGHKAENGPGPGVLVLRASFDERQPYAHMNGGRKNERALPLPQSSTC

Row | Structure (SMILES) | IC50 [nM]
1 | COc1cc(N2CCN(C(C)C)CC2)ccc1Nc1nc(Nc2ccc(Br)cc2C(N)=O)c2cc[nH]c2n1 [Example 68, 5-bromo-2-[(2-{[4-[4-(1-methylethyl)-1-piperazinyl]-2-(methyloxy)phenyl]amino}-1H-pyrrolo[2,3-d]pyrimidin-4-yl)amino]benzamide] | 1.26 to 3.98
2 | COc1cc(N2CCC(N3CCCC(F)(F)C3)CC2)ccc1Nc1nc(Nc2cc(F)ccc2C(N)=O)c2cc[nH]c2n1 [Example 77, 2-[(2-{[4-(3,3-difluoro-1,4′-bipiperidin-1′-yl)-2-(methyloxy)phenyl]amino}-1H-pyrrolo[2,3-d]pyrimidin-4-yl)amino]-4-fluorobenzamide] | 1.26 to 3.98
3 | COc1ccc(N2CCN(C(C)C)CC2)cc1Nc1nc(Nc2ccccc2C(N)=O)c2cc[nH]c2n1 [Example 10, 2-[(2-{[5-[4-(1-methylethyl)-1-piperazinyl]-2-(methyloxy)phenyl]amino}-1H-pyrrolo[2,3-d]pyrimidin-4-yl)amino]benzamide] | 1.26 to 3.98
4 | CCCN1CCC=C(c2ccc(Nc3nc(Nc4cc(F)ccc4C(=O)N[C@@H](C)CC)c4cc[nH]c4n3)c(OC)c2)C1 [Example 87, 4-fluoro-2-[(2-{[2-(methyloxy)-4-(1-propyl-1,2,5,6-tetrahydro-3-pyridinyl)phenyl]amino}-1H-pyrrolo[2,3-d]pyrimidin-4-yl)amino]-N-[(1S)-1-methylpropyl]benzamide] | 1.26 to 3.98
5 | CNC(=O)c1c(F)cccc1Nc1nc(Nc2cc3c(cc2OC)CCCN3C(=O)CN(C)C)nc2[nH]ccc12 [Example 212, 2-[(2-{[1-(N,N-dimethylglycyl)-6-(methyloxy)-1,2,3,4-tetrahydro-7-quinolinyl]amino}-1H-pyrrolo[2,3-d]pyrimidin-4-yl)amino]-6-fluoro-N-methylbenzamide] | 1.26 to 3.98
6 | COc1cc2c(cc1Nc1nc(Nc3cc(F)cc(F)c3C(=O)NCC(C)C)c3cc[nH]c3n1)N(C(=O)CN(C)C)CC2 [Example 154, 2-[(2-{[1-(N,N-dimethylglycyl)-5-(methyloxy)-2,3-dihydro-1H-indol-6-yl]amino}-1H-pyrrolo[2,3-d]pyrimidin-4-yl)amino]-4,6-difluoro-N-(2-methylpropyl)benzamide] | 1.26 to 3.98
7 | CNC(=O)c1c(F)cccc1Nc1nc(Nc2cc3c(cc2OC)CCCN3C(=O)CN2CCCCC2)nc2[nH]ccc12 [Example 217, 2-fluoro-N-methyl-6-[(2-{[6-(methyloxy)-1-(1-piperidinylacetyl)-1,2,3,4-tetrahydro-7-quinolinyl]amino}-1H-pyrrolo[2,3-d]pyrimidin-4-yl)amino]benzamide] | 1.26 to 3.98
8 | CNC(=O)c1c(F)cccc1Nc1nc(Nc2cc(NC(=O)CN(C)C)ccc2OC)nc2[nH]ccc12 [Example 245, 2-[(2-{[5-[(N,N-dimethylglycyl)amino]-2-(methyloxy)phenyl]amino}-1H-pyrrolo[2,3-d]pyrimidin-4-yl)amino]-6-fluoro-N-methylbenzamide] | 1.26 to 3.98
9 | CCN(C)CC(=O)N1CCc2cc(OC)c(Nc3nc(Nc4cccc(F)c4C(N)=O)c4cc[nH]c4n3)cc21 [Example 166, 2-[(2-{[1-(N-ethyl-N-methylglycyl)-5-(methyloxy)-2,3-dihydro-1H-indol-6-yl]amino}-1H-pyrrolo[2,3-d]pyrimidin-4-yl)amino]-6-fluorobenzamide] | 1.26 to 3.98
10 | COc1cc2c(cc1Nc1nc(Nc3cccc(F)c3C(N)=O)c3cc[nH]c3n1)N(C(=O)CN)CC2 [Example 141, 2-fluoro-6-[(2-{[1-glycyl-5-(methyloxy)-2,3-dihydro-1H-indol-6-yl]amino}-1H-pyrrolo[2,3-d]pyrimidin-4-yl)amino]benzamide] | 1.26 to 3.98
11 | COc1cc(N2CCN(C(C)C)CC2)ccc1Nc1nc(Nc2ccc(F)c(F)c2C(N)=O)c2cc[nH]c2n1 [Example 94, 2,3-difluoro-6-[(2-{[4-[4-(1-methylethyl)-1-piperazinyl]-2-(methyloxy)phenyl]amino}-1H-pyrrolo[2,3-d]pyrimidin-4-yl)amino]benzamide] | 1.26 to 3.98
12 | COc1cc(N2CCC(N3CCN(S(C)(=O)=O)CC3)CC2)ccc1Nc1nc(Nc2cccc(F)c2C(N)=O)c2cc[nH]c2n1 [Example 113, 2-fluoro-6-({2-[(2-(methyloxy)-4-{4-[4-(methylsulfonyl)-1-piperazinyl]-1-piperidinyl}phenyl)amino]-1H-pyrrolo[2,3-d]pyrimidin-4-yl}amino)benzamide] | 1.26 to 3.98
13 | COc1cc(N2CCC[C@H](O)C2)ccc1Nc1nc(Nc2cc(F)ccc2C(N)=O)c2cc[nH]c2n1 [Example 74, 4-fluoro-2-[(2-{[4-[(3S)-3-hydroxy-1-piperidinyl]-2-(methyloxy)phenyl]amino}-1H-pyrrolo[2,3-d]pyrimidin-4-yl)amino]benzamide] | 0.251 to 1
14 | COc1cc(N2CCN(C(C)=O)CC2)ccc1Nc1nc(Nc2cc(F)c(F)cc2C(N)=O)c2cc[nH]c2n1 [Example 103, 2-[(2-{[4-(4-acetyl-1-piperazinyl)-2-(methyloxy)phenyl]amino}-1H-pyrrolo[2,3-d]pyrimidin-4-yl)amino]-4,5-difluorobenzamide] | 0.251 to 1
15 | CCCN1CCC(COc2ccc(Nc3nc(Nc4cccc(F)c4C(N)=O)c4cc[nH]c4n3)c(OC)c2)CC1 [Example 206, 2-fluoro-6-({2-[(2-(methyloxy)-4-{[(1-propyl-4-piperidinyl)methyl]oxy}phenyl)amino]-1H-pyrrolo[2,3-d]pyrimidin-4-yl}amino)benzamide] | 1.26 to 3.98
16 | Cc1cc2c(cc1Nc1nc(Nc3cccc(F)c3C(N)=O)c3cc[nH]c3n1)N(C(=O)CN(C)C)CCC2 [Example 246, 2-[(2-{[1-(N,N-dimethylglycyl)-6-methyl-1,2,3,4-tetrahydro-7-quinolinyl]amino}-1H-pyrrolo[2,3-d]pyrimidin-4-yl)amino]-6-fluorobenzamide] | 1.26 to 3.98
17 | CN(C)CC(=O)Nc1ccc(Cl)c(Nc2nc(Nc3ccccc3C(N)=O)c3cc[nH]c3n2)c1 [Example 18, 2-{[2-({2-chloro-5-[(N,N-dimethylglycyl)amino]phenyl}amino)-1H-pyrrolo[2,3-d]pyrimidin-4-yl]amino}benzamide] | 0.251 to 1
